Assay results as given in patent US9980943B2, “Methods of treating muscular dystrophy” (BOARD OF REGENTS OF THE NEVADA SYSTEM OF HIGHER EDUCATION, …, priority 2013, dated 2018).

Columns and labels:
Type in all cases: cell-based, mouse
[1] = test system: β-galactosidase in CMV-LacZ C2C12 myotubes; test: CMV-LacZ secondary screen in C2C12 myotubes (β-Gal stabilizing assay); conditions: for CMV-LACZ in Myotubes (β-galactosidase activity relative to DMSO): CMV-LacZ C2C12 myotubes, 96-well format
How it was run: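 Stable CMV-LacZ C2C12 clone; six-point curve 0.5–40 μM; duplicates.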

[2] = test system: α7 integrin (LacZ reporter in α7+/LacZ myotubes); test: Myotube α7 integrin FDG assay (Burkin assay in myotubes, 96-well); conditions: myotubes
[3] = test system: α7 integrin (LacZ reporter in α7βgal+/− myoblasts); test: Myoblast α7+/LacZ integrin FDG assay (Burkin assay in myoblasts, 96-well); conditions: α7+/LacZ myoblasts, 96-well
[4] = 5 uM, C2C12 CMV-LacZ myotubes, fold relative to DMSO
[5] = 10 uM, C2C12 CMV-LacZ myotubes, fold relative to DMSO
[6] = 20 uM, C2C12 CMV-LacZ myotubes, fold relative to DMSO
[7] = 40 uM, C2C12 CMV-LacZ myotubes, fold relative to DMSO

Row | Compound | CMV-LACZ in Myotubes, signal relative to DMSO [1, 4] | CMV-LACZ in Myotubes, signal relative to DMSO [1, 5] | CMV-LACZ in Myotubes, signal relative to DMSO [1, 6] | CMV-LACZ in Myotubes, signal relative to DMSO [1, 7] | CMV-LACZ in Myotubes (β-galactosidase activity relative to DMSO) ([1]; 5 uM) | CMV-LACZ in Myotubes (β-galactosidase activity relative to DMSO) ([1]; 10 uM) | CMV-LACZ in Myotubes (β-galactosidase activity relative to DMSO) ([1]; 20 uM) | CMV-LACZ in Myotubes (β-galactosidase activity relative to DMSO) ([1]; 40 uM) | Burkin Assay in Myotubes (signal relative to DMSO) ([2]; 0.5 uM) | Burkin Assay in Myotubes (signal relative to DMSO) ([2]; 1 uM) | Burkin Assay in Myotubes (signal relative to DMSO) ([2]; 5 uM) | Burkin Assay in Myotubes (signal relative to DMSO) ([2]; 10 uM) | Burkin Assay in Myotubes (signal relative to DMSO) ([2]; 20 uM) | Burkin Assay in Myotubes (signal relative to DMSO) ([2]; 40 uM) | Burkin Assay in Myoblasts, value relative to DMSO ([3]; 0.5 uM) | Burkin Assay in Myoblasts, value relative to DMSO ([3]; 1 uM) | Burkin Assay in Myoblasts, value relative to DMSO ([3]; 5 uM) | Burkin Assay in Myoblasts, value relative to DMSO ([3]; 10 uM) | Burkin Assay in Myoblasts, value relative to DMSO ([3]; 20 uM) | Burkin Assay in Myoblasts, value relative to DMSO ([3]; 40 uM) | further results
1 | O=C(COC(=O)Cn1cnc2ccccc21)Nc1cccc([N+](=O)[O-])c1 [MLS001005283-01] | 0.9005 | 0.9051 | 1.032 | 1.1425 | – | – | – | – | – | – | – | – | – | – | – | – | – | – | – | – | Burkin Assay in Myotubes, α7 integrin LacZ reporter signal relative to DMSO ([2]; 0.5 uM): 0.9811; Burkin Assay in Myotubes, α7 integrin LacZ reporter signal relative to DMSO ([2]; 1 uM): 0.9951; Burkin Assay in Myotubes, α7 integrin LacZ reporter signal relative to DMSO ([2]; 5 uM): 0.8583; Burkin Assay in Myotubes, α7 integrin LacZ reporter signal relative to DMSO ([2]; 10 uM): 0.9141; Burkin Assay in Myotubes, α7 integrin LacZ reporter signal relative to DMSO ([2]; 20 uM): 0.9432; Burkin Assay in Myotubes, α7 integrin LacZ reporter signal relative to DMSO ([2]; 40 uM): 0.7596; Burkin Assay in Myoblasts, signal relative to DMSO ([3]; 0.5 uM): 0.8702; Burkin Assay in Myoblasts, signal relative to DMSO ([3]; 1 uM): 0.8582; Burkin Assay in Myoblasts, signal relative to DMSO ([3]; 5 uM): 0.9346; Burkin Assay in Myoblasts, signal relative to DMSO ([3]; 10 uM): 0.8908; Burkin Assay in Myoblasts, signal relative to DMSO ([3]; 20 uM): 0.8965; Burkin Assay in Myoblasts, signal relative to DMSO ([3]; 40 uM): 0.9301
2 | O=C(NC1CCCC1)c1ccc(CS(=O)(=O)Cc2ccccc2F)o1 [MLS001030746-01] | – | – | – | – | 0.9791 | 0.8757 | 1.098 | 0.9912 | 1.047 | 0.9692 | 1.031 | 0.9496 | 0.9886 | 1.067 | 0.9195 | 0.8373 | 1.069 | 1.073 | 0.9338 | 0.9637 | –
3 | COc1ccc(CNC(=O)COC(=O)CCc2c[nH]c3ccccc23)cc1 [MLS001033202-01] | 0.9658 | 0.9933 | 0.8214 | 1.2 | – | – | – | – | – | – | – | – | – | – | – | – | – | – | – | – | Burkin Assay in Myotubes, α7 integrin LacZ reporter signal relative to DMSO ([2]; 0.5 uM): 1.057; Burkin Assay in Myotubes, α7 integrin LacZ reporter signal relative to DMSO ([2]; 1 uM): 1.019; Burkin Assay in Myotubes, α7 integrin LacZ reporter signal relative to DMSO ([2]; 5 uM): 1.042; Burkin Assay in Myotubes, α7 integrin LacZ reporter signal relative to DMSO ([2]; 10 uM): 1.0906; Burkin Assay in Myotubes, α7 integrin LacZ reporter signal relative to DMSO ([2]; 20 uM): 1.051; Burkin Assay in Myotubes, α7 integrin LacZ reporter signal relative to DMSO ([2]; 40 uM): 0.986; Burkin Assay in Myoblasts, signal relative to DMSO ([3]; 0.5 uM): 0.6682; Burkin Assay in Myoblasts, signal relative to DMSO ([3]; 1 uM): 0.9153; Burkin Assay in Myoblasts, signal relative to DMSO ([3]; 5 uM): 0.9952; Burkin Assay in Myoblasts, signal relative to DMSO ([3]; 10 uM): 0.9282; Burkin Assay in Myoblasts, signal relative to DMSO ([3]; 20 uM): 0.8408; Burkin Assay in Myoblasts, signal relative to DMSO ([3]; 40 uM): 0.7704
4 | O=C(Nc1ccc(N2CCN(C(=O)c3ccccc3F)CC2)cc1)c1cncc(Br)c1 [MLS001060533-01] | – | – | – | – | 0.8358 | 0.7789 | 0.7716 | 0.6871 | 0.9464 | 1.208 | 1.318 | 1.52 | 1.342 | 1.117 | 0.9049 | 0.9915 | 1.033 | 1.101 | 1.397 | 1.22 | –
5 | O=C(Nc1ccc(Cl)cc1N1CCOCC1)C1CCCCC1 [MLS001060549-01] | 1.322 | 0.8952 | 0.8814 | 1.075 | – | – | – | – | 0.8181 | 1.071 | 0.9783 | 1.111 | 0.9391 | 0.9134 | 1.056 | 1.204 | 1.012 | 1.072 | 0.7731 | 0.9411 | –
6 | O=C(c1ccc(Cl)c(S(=O)(=O)N2CCCCC2)c1)N1CCN(Cc2ccccc2)CC1 [MLS001060561-01] | – | – | – | – | 0.9396 | 1.002 | 0.9373 | 0.6425 | 0.8047 | 0.9329 | 0.9832 | 0.9977 | 0.8557 | 0.9329 | 0.9961 | 0.9284 | 0.8266 | 0.8878 | 0.795 | 0.6318 | –
7 | COc1nccc(NCc2ccccc2)c1C#N [MLS001077207-01] | – | – | – | – | – | – | – | – | – | – | – | – | – | – | – | – | – | – | – | – | fold induction at 5 µM ([1]; Mus musculus, C2C12, read-out: CMV-LACZ in Myotubes, signal relative to DMSO, 5 uM, C2C12 CMV-LacZ myotubes, fold relative to DMSO): 0.952; fold induction at 10 µM ([1]; Mus musculus, C2C12, read-out: CMV-LACZ in Myotubes, signal relative to DMSO, 10 uM, C2C12 CMV-LacZ myotubes, fold relative to DMSO): 1.04; fold induction at 20 µM ([1]; Mus musculus, C2C12, read-out: CMV-LACZ in Myotubes, signal relative to DMSO, 20 uM, C2C12 CMV-LacZ myotubes, fold relative to DMSO): 0.866; fold induction at 40 µM ([1]; Mus musculus, C2C12, read-out: CMV-LACZ in Myotubes, signal relative to DMSO, 40 uM, C2C12 CMV-LacZ myotubes, fold relative to DMSO): 0.782; fold induction at 0.5 µM ([2]; Mus musculus, Myotube, 0.5 uM, read-out: Burkin Assay in Myotubes, α7 integrin LacZ reporter signal relative to DMSO): 0.985; fold induction at 1 µM ([2]; Mus musculus, Myotube, 1 uM, read-out: Burkin Assay in Myotubes, α7 integrin LacZ reporter signal relative to DMSO): 1.06; fold induction at 5 µM ([2]; Mus musculus, Myotube, 5 uM, read-out: Burkin Assay in Myotubes, α7 integrin LacZ reporter signal relative to DMSO): 1.42; fold induction at 10 µM ([2]; Mus musculus, Myotube, 10 uM, read-out: Burkin Assay in Myotubes, α7 integrin LacZ reporter signal relative to DMSO): 1.15; fold induction at 20 µM ([2]; Mus musculus, Myotube, 20 uM, read-out: Burkin Assay in Myotubes, α7 integrin LacZ reporter signal relative to DMSO): 1.01; fold induction at 40 µM ([2]; Mus musculus, Myotube, 40 uM, read-out: Burkin Assay in Myotubes, α7 integrin LacZ reporter signal relative to DMSO): 1.21; fold induction at 0.5 µM ([3]; Mus musculus, Myoblast, 48 h, 0.5 uM, read-out: Burkin Assay in Myoblasts, signal relative to DMSO): 0.97; fold induction at 1 µM ([3]; Mus musculus, Myoblast, 48 h, 1 uM, read-out: Burkin Assay in Myoblasts, signal relative to DMSO): 1.01; fold induction at 5 µM ([3]; Mus musculus, Myoblast, 48 h, 5 uM, read-out: Burkin Assay in Myoblasts, signal relative to DMSO): 1.05; fold induction at 10 µM ([3]; Mus musculus, Myoblast, 48 h, 10 uM, read-out: Burkin Assay in Myoblasts, signal relative to DMSO): 1.06; fold induction at 20 µM ([3]; Mus musculus, Myoblast, 48 h, 20 uM, read-out: Burkin Assay in Myoblasts, signal relative to DMSO): 1.01; fold induction at 40 µM ([3]; Mus musculus, Myoblast, 48 h, 40 uM, read-out: Burkin Assay in Myoblasts, signal relative to DMSO): 1.15
8 | CCOc1ccc(S(=O)(=O)NCCC(=O)NCC(c2cccs2)N2CCOCC2)cc1 (centres unmarked) [MLS001080869-01] | – | – | – | – | 0.9349 | 0.9153 | 0.9927 | 1.01 | 1.011 | 0.9574 | 0.974 | 0.9257 | 0.9862 | 0.9802 | 1.144 | 1.036 | 1.147 | 0.9857 | 0.973 | 0.8485 | –
